Series [1] deals with Rattus norvegicus. Briefly: Effect on TNBS-induced experimental colitis in po dosed Sprague-Dawely rat assessed as colon to body weight ratio after 5 days relative to control. The series is classed as functional.
In series [2] the test system is Rattus norvegicus. Briefly: Ulcerogenic activity in Wistar rat at 3000 mg/kg, po by cold stress method relative to control. It counts as toxicity, organism-based. Set-up: dose 3000 mg/kg, route oral. As to conditions: in vivo.
The nature of series [3]: Partition coefficient, log P in n-octanol/phosphate buffer at pH 7.4. It counts as physicochemical.
Series [4] has as its system Rattus norvegicus. Briefly: Ulcerogenic activity in Wistar rat at 2290 mg/kg, po by cold stress method relative to control. It counts as toxicity, organism-based. Set-up: dose 2290 mg/kg, route oral. The conditions noted are these: in vivo.
The subject of series [5] is Rattus norvegicus. Description: Effect on TNBS-induced experimental colitis in rectally dosed Sprague-Dawely rat assessed as colon to body weight ratio relative to control. It counts as functional.
The subject of series [6] is Rattus norvegicus. Briefly: Decrease in TNBS-induced colonic damage in po dosed Sprague-Dawely rat. The series is classed as functional, organism-based.
Series [7] concerns Rattus norvegicus. Description: Ulcerogenic activity in Wistar rat at 2829 mg/kg, po by cold stress method relative to control. The series is classed as toxicity, organism-based. Set-up: dose 2829 mg/kg, route oral. As to conditions: in vivo.
Series [8] in a line: Aqueous solubility of the compound. It counts as physicochemical.

Broadly, the logD is lipophilicity at a set pH, counting ionised and neutral species. Higher therefore signals a more lipophilic compound. Usually solubility stands for the dissolved amount per volume that the medium holds.

The source made the active and inactive calls. The rule behind the calls is not given here.

On to `O=C(O)c1cc(/N=N/c2ccc(S(=O)(=O)Nc3ccccn3)cc2)ccc1O` [SULFASALAZINE], for which the Ratio in the series on Rattus norvegicus [1] stood at 0.008. This compound also showed a UI in the series on Rattus norvegicus [2] of 9.

Consider `Nc1ccc(O)c(C(=O)O)c1` [MESALAMINE], for which the logD in series [3] came to 0.64. The compound further returned a UI in the series with Rattus norvegicus [4] of 59.6.

As to `O=C([O-])c1cc(/N=N/C(Cc2c[nH]c3ccccc23)C(=O)[O-])ccc1O.[Na+].[Na+]` (centres undefined), in the series with Rattus norvegicus [5], the Ratio was found to be 0.0073. Besides, the outcome in the series with Rattus norvegicus [6] was Active. This compound yielded a UI with Rattus norvegicus [7] of 13. The logD in series [3] is 0.26. The concentration in solution in series [8] (solubility) was 280 mg/mL.

The values are drawn from ChEMBL document CHEMBL1149581, “Colon-specific, mutual azo prodrug of 5-aminosalicylic acid with L-tryptophan: synthesis, kinetic studies and evaluation of its mitigating effect in trinitrobenzenesulfonic acid-induced colitis in rats” (Bioorg Med Chem, 2007).
